# US10640507B2, “PBD antibacterial agents” (KING'S COLLEGE LONDON, priority 2015, dated 2020)
# Like-named read-outs stand apart in the source and are kept apart here.
# How the values were obtained:
# B. cepacia NCTC 10743 = test: General MIC protocol, Gram negative; assay type: cell-based; details: Burkholderia cepacia, NCTC10743
# How it was run: (§1)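 Read-out: OD600 after 20 h at 37° C, alongside visual growth check. Wells held TSB, compound serially halved from 32 μg/ml final, and bacteria at 5×10^5/ml starting density; no-antibiotic and uninfected controls included.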
# A. baumannii ADP1 = test: General MIC protocol, Gram negative; assay type: cell-based; details: Acinetobacter baumannii
# How it was run: as §1
# A. baumannii W1 = test: General MIC protocol, Gram negative; assay type: cell-based; details: Acinetobacter baumannii
# How it was run: as §1
# A. baumannii NCTC 13424 = test: General MIC protocol, Gram negative; assay type: cell-based; details: Acinetobacter baumannii, NCTC13424
# How it was run: as §1
# A. baumannii NCTC 13302 = test: General MIC protocol, Gram negative; assay type: cell-based; details: Acinetobacter baumannii, NCTC13302
# How it was run: as §1
# B. cepacia ATCC 17765 = test: General MIC protocol, Gram negative; assay type: cell-based; details: Burkholderia cepacia, ATCC17765
# How it was run: as §1
# B. cenocepa K56-2 = test: General MIC protocol, Gram negative; assay type: cell-based
# How it was run: as §1
# [1] = tested on: B. multivorans C1962 (LMG 16665); test: General MIC protocol, Gram negative; assay type: cell-based; details: Burkholderia multivorans, LMG16665
# How it was run: as §1
# [2] = tested on: B. cepacia CEP509 (LMG 18821); test: General MIC protocol, Gram negative; assay type: cell-based; details: Burkholderia cepacia, LMG18821
# How it was run: as §1
# [3] = tested on: B. multivorans C1576 (LMG 16660); test: General MIC protocol, Gram negative; assay type: cell-based; details: Burkholderia multivorans, LMG16660
# How it was run: as §1
# A. baumannii UKA2 = test: General MIC protocol, Gram negative; assay type: cell-based; details: Acinetobacter baumannii
# How it was run: as §1
# K. pneumonia NCTC 46704 = test: General MIC protocol, Gram negative; assay type: cell-based; details: Klebsiella pneumoniae, NCTC46704
# How it was run: as §1
# B. cepacia LMG 17997 = test: General MIC protocol, Gram negative; assay type: cell-based; details: Burkholderia cepacia, LMG17997
# How it was run: as §1
# A. baumannii UKA7 = test: General MIC protocol, Gram negative; assay type: cell-based; details: Acinetobacter baumannii
# How it was run: as §1
# NCTC 13424 = test: Effect of efflux pump inhibitors (EPIs) on MIC; assay type: cell-based, A. bauamnnii
# Experimental: (§2) 1. Grow up cultures of bacterial strains to be tested overnight.
# (§3) 2. Dilute down overnight cultures to concentration of 1×10^6 bacteria/ml (OD0.01) in Tryptic soy broth (TSB).
# (§4) 3. Add 100 μl of TSB media to column 2-column 12 in 96 well plate (keeping column 1 clear).
# (§5) 4. Make up compound to a concentration of 64 μg/ml in water.
# (§6) 5. Add 100 μl of antibiotic solution to the 1st and 2nd columns.
# (§7) 6. Using a multichannel pipette take 100 μl from the 2nd column wells and pipette into 3rd column wells and repeat down the 96 well plate (remember to include controls i.e. uninfected media and media with no antibiotic).
# (§8) 7. To each well (except uninfected control row H) add 50 μl/well of EPI at 4× final concentration in TSB.
# (§9) 9. In wells used to test the effect of the EPI carbonyl cyanide 3-chlorophenylhydrazone (CCCP) the CCCP is added at 10 μg/ml final concentration.
# (§10) 10. In wells used to test the effect of the EPI phenylalanine-arginine β-naphthylamide (PABN) the PABN is added at 25 μg/ml final concentration.
# (§11) 11. In wells used to test the effect of the PABN+Mg, the PABN is added at 25 μg/ml final concentration, with 1 mM MgSO4 in TSB.
# (§12) 12. Wrap plate with parafilm to prevent evaporation.
# (§13) 13. Leave at desired temperature (37° C. unless specified elsewhere) for 20 hours.
# (§14) 14. Next day check plates for growth and measure optical density (i.e. absorbance) at a wavelength of 600 nm (OD600).
# (§15) Compound KMR-14-33 was tested against a range of bacterial species using the above protocol. Compound PP-A148 was also tested against a more limited range of bacterial species using the above protocol. For KMR-14-33 measurements were carried out for the compound alone, for the compound plus CCCP, for the compound plus PABN and for the compound plus PABN and plus Mg. For PP-A148 measurements were carried out for the compound alone and for the compound plus PABN.
# NCTC 13438 = test: Effect of efflux pump inhibitors (EPIs) on MIC; assay type: cell-based, K. pneumoniae; details: for MIC: Klebsiella pneumoniae
# Experimental: as §2, §3, §4, §5, §6, §7, §8, §9, §10, §11, §12, §13, §14, §15
# Klebsiella KP 342 = test: General MIC protocol, Gram negative; assay type: cell-based; details: Klebsiella, KP342
# Experimental: General Minimum Inhibitory Concentration (MIC) Protocol
# as §2, §3, §4
# 4. Make up compound to a concentration of 64 μg/ml in water (or alternatively to twice the chosen maximum concentration to be tested).
# as §6
# 6. Using a multichannel pipette take 100 μl from the 2nd column wells and pipette into 3rd column wells and repeat down the 96 well plate (remembering to include controls i.e. uninfected media and media with no antibiotic).
# 7. To each well (except uninfected control row H) add 100 μl of bacterially infected media at a concentration of 1×10^6/ml.
# 8. This dilutes down the concentration of the antibiotic by half (top dose is therefore 32 μg/ml in column 1) and also gives you a starting bacterial concentration of 5×10^5/ml.
# 9. Wrap plate with parafilm to prevent evaporation.
# 10. Leave at desired temperature (37° C. unless specified elsewhere) for 20 hours.
# 11. Next day check plates for growth and measure optical density (i.e. absorbance) at a wavelength of 600 nm (OD600).
# An example of such a plate is shown in FIG. 1 where column A represents wells that receive the top dose 100 μl; column B represents wells that receive the top dose 100 μl+100 μl TSB; and column C represents wells that receive 100 μl TSB. Row H which is marked by a box labelled D represents a blank where the cells receive no bacteria.
# The minimum inhibitory concentration (MIC) was measured using the general MIC protocol given above.
compound,measurement,setting,value
"COc1cc2c(cc1OCCCC(=O)Nc1cc(C(=O)Nc3ccc4sc(C(=O)N(C)C)cc4c3)n(C)c1)N=C[C@@H]1CCCN1C2=O [KMR-14-33, (S)—N-(2-(dimethylcarbamoyl)benzo[b]thiophen-5-yl)-4-(4-((7-methoxy-5-oxo-2,3,5,11a-tetrahydro-1H-benzo[e]pyrrolo[1,2-a][1,4]-diazepin-8-yl)oxy)butanamido)-1-methyl-1H-pyrrole-2-carboxamide]",MIC,B. cepacia NCTC 10743,1 to 2 µg/mL
same,MIC,A. baumannii ADP1,0.125 µg/mL
same,MIC,A. baumannii W1,1 µg/mL
same,MIC,A. baumannii NCTC 13424,0.5 µg/mL
same,MIC,A. baumannii NCTC 13302,0.25 µg/mL
same,MIC,B. cepacia ATCC 17765,0.125 µg/mL
same,MIC,B. cenocepa K56-2,2 µg/mL
same,MIC,[1],2 µg/mL
same,MIC,[2],2 µg/mL
same,MIC,[3],1 µg/mL
same,MIC,A. baumannii UKA2,0.5 µg/mL
same,MIC,K. pneumonia NCTC 46704,1 µg/mL
same,MIC,B. cepacia LMG 17997,0.125 µg/mL
same,MIC,A. baumannii UKA7,0.5 µg/mL
same,+PABN MIC,"NCTC 13424; NCTC 13424, PABN at 25 μg/ml",0.125 µg/mL
same,+PABN + Mg MIC,"NCTC 13424; NCTC 13424, PABN at 25 μg/ml with 1 mM MgSO4",0.25 µg/mL
same,MIC,NCTC 13424; read-out: +CCCP MIC,0.25 µg/mL
same,MIC,NCTC 13424; read-out: Control with no EPI MIC,0.5 µg/mL
same,MIC,"NCTC 13438; NCTC13438, read-out: +CCCP MIC",0.5 µg/mL
same,MIC,"NCTC 13438; NCTC13438, read-out: Control with no EPI MIC",0.5 µg/mL
same,+PABN MIC,"NCTC 13438; NCTC 13438, PABN at 25 μg/ml",0.125 µg/mL
same,+PABN + Mg MIC,"NCTC 13438; NCTC 13438, PABN at 25 μg/ml with 1 mM MgSO4",0.25 µg/mL
"COc1cc2c(cc1OCCCC(=O)Nc1cc(C(=O)Nc3ccc4oc(C(=O)N5CCSCC5)cc4c3)n(C)c1)N=C[C@@H]1CCCN1C2=O [PP-A148, (S)-4-(4-((7-methoxy-5-oxo-2,3,5,11a-tetrahydro-1H-benzo-[e]pyrrolo[1,2-a][1,4]diazepin-8-yl)oxy)butanamido)-1-methyl-N-(2-(thiomorpholine-4-carbonyl)benzofuran-5-yl)-1H-pyrrole-2-carboxamide]",MIC,Klebsiella KP 342,4 to 8 µg/mL
